# Experimental data published in patent US9668960B2, “Methods useful in studying or modulating skin or hair pigmentation, plant extracts for use in compositions and cosmetic care method” (L V M H RECHERCHE, priority 2008, dated 2017).
# Tested on: Myo-X
# Test: Myo-X expression by double immunolabelling in normal human melanocytes
# Assay type: cell-based
# Method: Immunofluorescence staining: For EM:KC co-culture studies fully matched melanocytes (p4) and keratinocytes (p2) were seeded onto 8-well Lab-Tek® chamber slides at a cell density of 1×10^4 cells/well and in a ratio of 1 melanocyte to 10 keratinocytes. Co-cultures were maintained overnight (16 h) in a mixture of full K-SFM and MEM (co-culture medium) to allow cell attachment, followed by medium replenishment for a further 24 h. Cells were then fixed in ice-cold methanol for 10 min at −20° C., washed in PBS and then blocked with 10% donkey serum for the detection of protein expression in filopodia.
# For double labelling experiments the first primary antibody, Myo-X (1:100) (Santa Cruz, Calif., USA) was applied overnight at 4° C., followed by incubation with FITC-conjugated secondary antibody (1:100) for 1 h at room temperature. The second primary antibody, either cytokeratin (1:100) (Abeam, Cambridge, UK) or β-Actin (1:100) (Santa Cruz, USA) or Fascin (1:100) (Santa Cruz, USA) or NKi/beteb (1:30) (Monosan) was applied for 1 h at room temperature followed by a TRITC-conjugated secondary antibody (1:100) (Jackson Immunoresearch Laboratories, Inc., West Grove, USA). DAPI (Vector Laboratories, Burlingame, Calif.) was used to stain nuclei. Images were captured with a cooled Hamamatsu digital camera using a 100× objective and post-processed using Paint Shop Pro (Jasc Software Ver. 7. CA, USA). Negative controls included the omission of primary antibody and replacement with non-immune serum from secondary antibody host and inclusion of secondary antibodies.
# Myo-X was also detected in EM filopodia.
smiles,measurement,setting,value
CC(C)Cn1c(=O)n(C)c(=O)c2[nH]cnc21 [IBMX],"Myo-X expression in EM (immunolabelling, words)",compared with untreated cells,increased the expression of Myo-X
same,Myo-X localization in EM filopodia,compared with untreated cells,enhanced Myo-X localization in EM filopodia
same,overall number of filopodia,total number of yellow spots beyond EM dendritic tips,increased
